Experimental data: patent US12109266B2, “Modulating gabarap to modulate immunogenic cell death” (Dana-Farber Cancer Institute, Inc., priority 2020, dated 2024)

How the values were obtained:
[1] = test system: 5TGM1 multiple myeloma cell line; test: Apoptosis assay (Annexin-V/7-AAD flow cytometry); assay type: cell-based, murine
Protocol: Apoptosis was evaluated by Annexin-V/7-Aminoactinomycin D (7-AAD) staining and flow cytometric analysis using the PE Annexin V Apoptosis Detection Kit I (BD Biosciences), following the manufacturer's instructions.
Apoptosis was evaluated by Annexin-V/7-Aminoactinomycin D (7-AAD) staining and flow cytometric analysis using the PE Annexin V Apoptosis Detection Kit I (BD Biosciences).

[2] = test system: AMO1 and NCI-H929 MM cells; test: Micronuclei assay (flow cytometry); assay type: cell-based, human; conditions: AMO1 (0-7.5 nM) and NCI-H929 (0-5 nM), 16 h
Protocol: Cells were analyzed for micronuclei formation using a flow cytometry-based Micronucleus Assay (MicroFlow kit), according to manufacturer's protocol. Briefly, nonviable cells were removed by Ficoll gradient centrifugation. Viable cells were then stained with photoactivated Nucleic Acid Dye A (ethidium monoazide) that crosses the compromised outer membrane of apoptotic and necrotic cells and stains them red. Cells were then washed twice and lysed with a detergent containing buffer to break open cytoplasmic membranes and release nuclei and micronuclei. Nucleic Acid Dye B (SYTOX green) is then added to label DNA from both nuclei and micronuclei. Flow cytometry analysis was used to distinguish DNA from dead (dual stained with Dye A and B) and live (single stained with Dye B) cells.

Structure (SMILES): CC(C)C[C@H](NC(=O)[C@H](Cc1ccccc1)NC(=O)c1cnccn1)B(O)O [BTZ, bortezomib]
- multiple myeloma cell death, as measured by phosphatidylserine exposure ([1]; 5TGM1, BTZ 1-10 nM, 16 h): induced multiple myeloma cell death in a dose-dependent manner
- apoptosis (annexin-V-positive cells) ([1]; 5TGM1 WT vs Calr^KO clones, BTZ 7.5 nM): triggered apoptosis in both 5TGM1 WT cells and the Calr^KO clones at the same extent
- micronuclei (DNA content in the cytoplasm) [2]: dose-dependent increase of DNA content in the cytoplasm
